Data on 21 compounds can be found in publication PMC6614805 (2019).

In the first assay the test system is SCA2.1 (DNA, aptamer) CTTACGACCTTAAGTGGGGTTCGGGTGGAGTTTATGGGGTCGTAAG
Kind of assay: ITC. To be noted: 20 mM NaCl, 0.5 mM MgCl2; 10 mM Tris-HCl pH 7.4, 23 °C; pure enantiomer, one-site model.
By KD is commonly meant a measure of binding affinity in units of concentration. Compound `CCCC(C(=O)c1ccc2c(c1)OCO2)N1CCCC1` (stereo not drawn) displayed a KD of 3.61 ± 0.12 µM.
Regarding `CCC[C@H](C(=O)c1ccc2c(c1)OCO2)N1CCCC1`, the KD was 0.0465 ± 0.0075 µM.

The assay is the same for the next values; noted with them: 20 mM NaCl, 0.5 mM MgCl2; 10 mM Tris-HCl pH 7.4, 23 °C; racemate, modified two-site model; site 1 of 2 (one enantiomer).
Compound `CCC(NC)C(=O)c1ccc2c(c1)OCO2` (racemic) had a KD1 of 0.16 ± 0.05 µM.
Still for that read-out and setting: in the case of `CCCC(C(=O)c1ccc2c(c1)OCO2)N1CCCC1` (racemic) it was 0.0175 ± 0.0164 µM; in that of `CCCC(C(=O)c1ccccc1)N1CCCC1` (racemic), 0.09 ± 0.02 µM; in that of `CCNC(C)C(=O)c1ccc2c(c1)OCO2` (racemic), 0.10 ± 0.03 µM.

Another assay shares this test system. The experiment in a line: Cy7 displacement, absorbance A670/A775. To be noted: Cy7 (2 µM) displaced from 3 µM SCA2.1; 50 µM compound.
Turning to `CCCC(C(=O)c1ccc2ccccc2c1)N1CCCC1` (stereo not drawn), the binding entry is given as “yes”.
On the same count and under the same terms, the entry for `CCCC(NC)C(=O)c1ccc2c(c1)OCO2` (stereo not drawn) is “yes”; for `CNC(C)C(=O)c1ccc(C)cc1` (stereo not drawn) it is “yes”; for `CNC(C)C(=O)c1ccc(F)cc1` (stereo not drawn) it is “yes”.
Same read-out and setting: the entry for `CNC(C)C(=O)c1ccc2c(c1)OCO2` (stereo not drawn) is “yes”; for `CNC(C)C(=O)c1cccc(F)c1` (stereo not drawn) it is “yes”.
Still for that read-out and setting: in the case of `CNC(C)C(=O)c1ccccc1` (stereo not drawn) it was “yes”; in that of `C[C@H](N)C(=O)c1ccccc1`, “yes”.

Still in this assay, the particulars now being: Cy7 (2 µM) displaced from 3 µM SCA2.1; highest concentration tested 50 µM.
Regarding `CC(=O)Nc1ccc(O)cc1`, the binding result was “no”.
On the same count and under the same terms, the entry for `CCN(CC)CC(=O)Nc1c(C)cccc1C` is “no”; for `CCOC(=O)c1ccc(N)cc1` it is “no”.
On to `CN[C@@H](C)[C@@H](O)c1ccccc1`, for which the binding entry is on record as “no”.
`Cn1c(=O)c2c(ncn2C)n(C)c1=O`: the binding entry is reported as “no”.
On the same count and under the same terms, in the case of `OC[C@H]1O[C@@](CO)(O[C@H]2O[C@H](CO)[C@@H](O)[C@H](O)[C@H]2O)[C@@H](O)[C@@H]1O` it was “no”.

The next assay has the same test system. The experiment in a line: absorbance titration at 775 nm. The settings on record: 20 mM NaCl, 0.5 mM MgCl2; 10 mM Tris-HCl pH 7.4, 0.01% Tween 20, 1% DMSO, room temperature; 2 µM Cy7.
As to `CCN1C(=CC=CC=CC=Cc2sc3ccccc3[n+]2CC)Sc2ccccc21`, the dissociation constant KD is given as 1.6 µM.
